These are literature values, as cited in US11324822B2, “Combination of HDAC inhibitor and anti-PD-1 antibody for treatment of cancer” (priority 2015, dated 2022).

For data set [1] the following is noted: in vivo.
The test system of another data set is histone acetylation. The following applies: following the administration of entinostat.

In the case of `Nc1ccccc1NC(=O)c1ccc(CNC(=O)OCc2cccnc2)cc1` [Entinostat, N-(2-aminophenyl)-4-[N-(pyridine-3-yl)methoxycarbonylamino-methyl]-benzamide], the half-life entry in data set [1] was “about 100 hours”. Also, in the data set on histone acetylation, the “changes in histone acetylation following administration” value was “persist for several weeks”.
